# Target: T1, h FPR2 (Homo sapiens, UniProt P25090)
# T1 construct: expressed in transfected cells
# T1 sequence (P25090 1-351): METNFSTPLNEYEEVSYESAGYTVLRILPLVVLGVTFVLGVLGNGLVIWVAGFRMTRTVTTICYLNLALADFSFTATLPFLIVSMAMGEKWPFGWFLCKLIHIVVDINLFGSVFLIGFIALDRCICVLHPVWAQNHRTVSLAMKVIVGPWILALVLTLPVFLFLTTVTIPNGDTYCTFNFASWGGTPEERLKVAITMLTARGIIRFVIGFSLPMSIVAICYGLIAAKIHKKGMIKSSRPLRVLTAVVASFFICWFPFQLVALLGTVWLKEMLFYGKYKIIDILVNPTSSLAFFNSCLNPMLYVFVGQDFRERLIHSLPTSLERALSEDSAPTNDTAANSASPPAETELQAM
# Assay: Agonistic activity in hFPR2-Aq-CHO cells (FLIPR Calcium 5 fluorescence assay)
# Assay type: cell-based
# Settings: 11 point half log dilution, final assay concentration from 10µM
# Summary of the method: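 EC50 reflects the compound-evoked rise in Calcium 5 fluorescence over basal, recorded for 5 min on FLIPR and compared with no-compound wells. Dye-loaded hFPR2-Aq-CHO cells received half-log dilutions from 10 µM to 100 pM final in pH 7.4 HBSS buffer.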
row,Compound,EC50 [nM]
1,"COc1ccc([C@@H]2CN(CCO)CC[C@H]2NC(=O)Nc2cc(C)ns2)nc1 (relative stereo) [Ex-122, trans-1-[1-(2-Hydroxy-ethyl)-3-(5-methoxy-pyridin-2-yl)-piperidin-4-yl]-3-(3-methyl-isothiazol-5-yl)-urea]",3
2,"COc1ccc([C@@H]2CN(C(=O)CO)CC[C@H]2NC(=O)Nc2cc(C)ns2)nc1 (relative stereo) [Ex-123, trans-1-[1-(2-Hydroxy-acetyl)-3-(5-methoxy-pyridin-2-yl)-piperidin-4-yl]-3-(3-methyl-isothiazol-5-yl)-urea]",18
3,"COc1ccc([C@@H]2CN(Cc3cnn(S(C)(=O)=O)c3)CC[C@H]2NC(=O)Nc2ccc(Cl)cc2)nc1 (relative stereo) [Ex-125, trans-1-(4-Chlorophenyl)-3-[3-(5-methoxy-pyridin-2-yl)-1-[(1-methylsulfonyl-1H-pyrazol-4-yl)-methyl]-piperidin-4-yl]-urea]",0.09
4,"COc1ccc([C@@H]2CN(C)CC[C@H]2NC(=O)Nc2ccc(Cl)cc2)nc1 (relative stereo) [Ex-126, trans-1-(4-Chlorophenyl)-3-[3-(5-methoxy-pyridin-2-yl)-1-methyl-piperidin-4-yl]-urea]",1.2
5,"COc1ccc([C@@H]2CN(CC3CC3)CC[C@H]2NC(=O)Nc2ccc(Cl)cc2)nc1 (relative stereo) [Ex-127, trans-1-(4-Chlorophenyl)-3-[1-(cyclopropyl-methyl)-3-(5-methoxy-pyridin-2-yl)-piperidin-4-yl]-urea]",0.16
6,"COc1ccc([C@@H]2CN(C(=O)c3ccc(C)nc3)CC[C@H]2NC(=O)Nc2ccc(C#N)cc2)nc1 (relative stereo) [Ex-128, trans-1-(4-Cyano-phenyl)-3-[3-(5-methoxy-pyridin-2-yl)-1-(6-methyl-pyridine-3-carbonyl)-piperidin-4-yl]-urea]",5
7,"COc1ccc([C@@H]2CN(CC(N)=O)CC[C@H]2NC(=O)Nc2ccc(Cl)cc2)nc1 (relative stereo) [Ex-129, trans-2-[4-[[(4-Chlorophenyl)-carbamoyl]amino]-3-(5-methoxy-pyridin-2-yl)-piperidin-1-yl]-acetamide]",0.3
8,"O=C(Nc1ccc(Cl)cc1)N[C@@H]1CCN(C(=O)C2CCNCC2)C[C@H]1c1ccc(Cl)s1 (relative stereo) [Ex-130, trans-1-(4-Chlorophenyl)-3-[3-(5-chloro-thiophen-2-yl)-1-(piperidine-4-carbonyl)-piperidin-4-yl]-urea]",4
9,"O=C(Nc1ccc(Cl)cc1)N[C@@H]1CCN(C(=O)C2CCC(O)CC2)C[C@H]1c1ccc(Cl)s1 (relative stereo) [Ex-132, trans-1-(4-Chlorophenyl)-3-[3-(5-chloro-thiophen-2-yl)-1-(4-hydroxy-cyclohexanecarbonyl)-piperidin-4-yl]-urea]",39
10,"COc1ccc([C@@H]2CN(C3COC3)CC[C@H]2NC(=O)Nc2cc(C)ns2)nc1 (relative stereo) [Ex-133, trans-1-[3-(5-Methoxy-pyridin-2-yl)-1-(oxetan-3-yl)-piperidin-4-yl]-3-(3-methyl-isothiazol-5-yl)-urea]",13
11,"CNCCN1CC[C@@H](NC(=O)Nc2cc(C)ns2)[C@H](c2ccc(OC)cn2)C1 (relative stereo) [Ex-134, trans-1-[3-(5-Methoxy-pyridin-2-yl)-1-(2-methylamino-ethyl)-piperidin-4-yl]-3-(3-methyl-isothiazol-5-yl)-urea]",2
12,"CNCCC(=O)N1CC[C@@H](NC(=O)Nc2cc(C)ns2)[C@H](c2ccc(OC)cn2)C1 (relative stereo) [Ex-135, trans-1-[3-(5-Methoxy-pyridin-2-yl)-1-(3-methylamino-propanoyl)-piperidin-4-yl]-3-(3-methyl-isothiazol-5-yl)-urea]",17
13,"COc1ccc([C@@H]2CN(CCN(C)C)CC[C@H]2NC(=O)Nc2ccc(Cl)cc2)nc1 (relative stereo) [Ex-136, trans-1-(4-Chlorophenyl)-3-[1-[2-(dimethylamino)ethyl]-3-(5-methoxy-pyridin-2-yl)-piperidin-4-yl]-urea]",1.4
14,"CNCCCN1CC[C@@H](NC(=O)Nc2ccc(Cl)cc2)[C@H](c2ccc(OC)cn2)C1 (relative stereo) [Ex-137, trans-1-(4-Chlorophenyl)-3-[3-(5-methoxy-pyridin-2-yl)-1-(3-methylamino-propyl)-piperidin-4-yl]-urea]",0.2
15,"COc1ccc([C@@H]2CN(Cc3cnn(S(C)(=O)=O)c3)CC[C@H]2NC(=O)Nc2ccc(C#N)cc2)nc1 (relative stereo) [Ex-140, trans-1-(4-Cyano-phenyl)-3-[3-(5-methoxy-pyridin-2-yl)-1-[(1-methylsulfonyl-1H-pyrazol-4-yl)-methyl]-piperidin-4-yl]-urea]",0.9
16,"COc1ccc([C@@H]2CN(C(=O)c3ccc(C(F)(F)F)nc3)CC[C@H]2NC(=O)Nc2ccc(C#N)cc2)nc1 (relative stereo) [Ex-141, trans-1-(4-Cyano-phenyl)-3-[3-(5-methoxy-pyridin-2-yl)-1-[6-(trifluoromethyl)-pyridine-3-carbonyl]-piperidin-4-yl]-urea]",1.2
17,"COc1ccc([C@@H]2CN(CCC(N)=O)CC[C@H]2NC(=O)Nc2ccc(Cl)cc2)nc1 (relative stereo) [Ex-142, trans-3-[4-[[(4-Chlorophenyl)-carbamoyl]amino]-3-(5-methoxy-pyridin-2-yl)-piperidin-1-yl]-propionamide]",1.1
18,"COc1ccc([C@@H]2CN(CCC(C)(C)C#N)CC[C@H]2NC(=O)Nc2ccc(Cl)cc2)nc1 (relative stereo) [Ex-144, trans-1-(4-Chlorophenyl)-3-[1-(3-cyano-3-methyl-butyl)-3-(5-methoxy-pyridin-2-yl)-piperidin-4-yl]-urea]",1
19,"COc1ccc([C@@H]2CN(Cc3cnn(C)c3)CC[C@H]2NC(=O)Nc2ccc(Cl)cc2)nc1 (relative stereo) [Ex-145, trans-1-(4-Chlorophenyl)-3-[3-(5-methoxy-pyridin-2-yl)-1-[(1-methyl-1H-pyrazol-4-yl)-methyl]-piperidin-4-yl]-urea]",0.3
20,"COc1ccc([C@@H]2CN(Cc3cnn(C)c3)CC[C@H]2NC(=O)Nc2ccc(C#N)cc2)nc1 (relative stereo) [Ex-146, trans-1-(4-Cyano-phenyl)-3-[3-(5-methoxy-pyridin-2-yl)-1-[(1-methyl-1H-pyrazol-4-yl)-methyl]-piperidin-4-yl]-urea]",2
21,"COc1ccc([C@@H]2CN(CC3CCN(C)CC3)CC[C@H]2NC(=O)Nc2ccc(Cl)cc2)nc1 (relative stereo) [Ex-147, trans-1-(4-Chlorophenyl)-3-[3-(5-methoxy-pyridin-2-yl)-1-[(1-methyl-piperidin-4-yl)-methyl]-piperidin-4-yl]-urea]",0.4

# Same assay, conditions: agonistic response at 0.1µM
row,Compound,activation at 0.1 µM [%]
1,"O=C(Nc1ccc(Cl)cc1)N[C@@H]1CCN(C(=O)CCO)C[C@H]1c1ccc(Cl)s1 (relative stereo) [Ex-131, trans-1-(4-Chlorophenyl)-3-[3-(5-chloro-thiophen-2-yl)-1-(3-hydroxy-propanoyl)-piperidin-4-yl]-urea]",38
2,"COc1ccc([C@@H]2CN(C(=O)CO)CC[C@H]2NC(=O)Nc2ccccc2)nc1 (relative stereo) [Ex-139, trans-1-[1-(2-Hydroxy-acetyl)-3-(5-methoxy-pyridin-2-yl)-piperidin-4-yl]-3-phenyl-urea]",34
